Source: PMC9152369, “Integrated UPLC-Q-TOF-MS/MS and Network Pharmacology Approach to Investigating the Metabolic Profile of Marein of Coreopsis tinctoria Nutt” (Evidence-based Complementary and Alternative Medicine : eCAM, 2022)
Several values for one entry are separate records, joined by “and”; a condition that tells them apart may be missing. Equal values may be shown once. Entries after “also recorded” stand apart in the source; their conditions may differ. Blank lines part the entries; values can stand above or below the compound they belong to.

Legend:
[1] = Detection of marein and metabolites in rat plasma and urine after tail vein injection (UPLC-Q-TOF-MS/MS); assay type: in vivo, Sprague–Dawley rats; design: key to Location (matrix in which the metabolite was detected): P: plasma; U: urine; conditions: for Location (matrix in which the metabolite was detected): tail vein injection of marein 10 mg/kg, plasma 0-1 h, urine 24 h; for prototype components after tail vein injection: tail vein injection 10 mg/kg
Protocol: (§1) Forty-eight healthy male Sprague–Dawley rats, SPF grade, weighing 250 ± 10 g, were purchased from Huafukang Laboratory Animal Technology Co. Ltd. (Beijing, China). Before use, all animals were reared for 5 days at a constant temperature of 25°C, a humidity of 40–60%, and a 12-hour light-dark cycle.
After adaptive feeding of 24 SD rats for 1 week, they were randomly divided into 4 groups, namely: blank blood sample group, blank urine group, marein blood sample group, and marein urine group. The experimental animals were fasted 12 hours before the administration and free drinking water. Marein was dissolved in appropriate amounts of saline and administered to SD rats via tail vein injection at a dose of 10 mg/kg. The blank group was injected with an equal volume of saline through the tail vein.
(§2) Blood samples were collected from the fundus venous plexus of rats at 0, 0.08, 0.25, 0.5, and 1 h before and after gavage and injection. The blood samples were centrifuged (9,900 g, 10 min) to obtain plasma samples. All plasma samples were stored at −80°C until they were processed and analyzed.
(§3) Urine samples were collected for 24 hours by gavage and injection in a metabolic cage. All urine samples were stored at −80°C until they were processed and analyzed.
(§4) Take 100 μL of plasma from each group at the same time point and combine, add 900 μL of acetonitrile, vortex for 3 min, and centrifuge (4°C, 19,500 g) for 10 min. Take the supernatant, blow-dry, and concentrate and then add 900 μL of acetonitrile. Vortex for 3 minutes and then centrifuge (4°C, 19,500 g) for 10 minutes. Take the supernatant, dry it with nitrogen, and concentrate. Add 100 μL of 50% methanol to reconstitute the residue (methanol:water = 1:1), vortex, and centrifuge (4°C, 19,500 g) for 10 minutes. The supernatant was taken and analyzed by UPLC-Q-TOF-MS/MS. The blank plasma sample was processed in the same way.
(§5) Take 400 μL of urine, add 800 μL of methanol, vortex for 3 minutes, and centrifuge (4°C, 19,500 g) for 10 minutes. Take the supernatant, blow-dry, and concentrate and then add 800 μL of methanol to reconstitute, vortex for 3 minutes, and centrifuge (4°C, 19,500 g) for 10 minutes. In parallel, the supernatants were combined, dried, concentrated with nitrogen, and finally reconstituted with 100 μL 50% methanol (methanol:water = 1:1). The supernatant was analyzed by UPLC-Q-TOF-MS/MS. The blank urine sample was processed in the same way.
(§6) Used UPLC-Q-TOF-MS/MS 9030 system (Shimadzu, Japan), chromatography column: Shim-pack GISS C18 column (100 × 2.1 mm, 1.9 μm). Mobile phase: A phase 0.1% formic acid water, B phase acetonitrile, gradient elution, elution gradient: 0∼1 min, 5∼10% B; 1∼2 min, 10% B; 2∼3 min, 10∼15% B; 3∼5 min, 15∼20% B; 5∼11 min, 20∼40% B; 11∼13 min, 40∼80% B; 13∼15 min, 80∼95% B; 15∼17 min, 95% B; 17∼20 min, 5% B. Flow rate: 0.3 mL/min; column temperature: 40°C.
(§7) MS operation conditions were as follows. The Q-TOF-MS spectrometer was configured with an electrospray ion source (ESI) operating in the negative and positive ion modes. Ion source interface voltage is −3.0 Kv. Nitrogen is used as the drying gas and the atomizing gas. The drying gas flow rate is set to 10 L/min, and the atomizing gas flow rate is set to 3.0 L/min. Air is used as heating gas, and the flow rate is set to 10 L/min; argon is used as collision gas; desolvent tube temperature is 250°C; heating block temperature is 400°C; and interface temperature is 300°C. Scan modes are MS Scan (m/z 100–500; 500–1,000) and MS/MS (m/z 50–500; 50–1,000). The collision energy (CE) is 35 ± 17 V.
(§8) The data obtained by UPLC-Q-TOF-MS/MS were analyzed with Formula Predictor Server software. Target fragments are analyzed by ACD/Labs software accurate mass calculator (Shimadzu City, Japan).

[2] = Detection of marein and metabolites in rat plasma and urine after oral administration (UPLC-Q-TOF-MS/MS); assay type: in vivo, Sprague–Dawley rats; design: key to Location (matrix in which the metabolite was detected): P: plasma; U: urine; conditions: for Location (matrix in which the metabolite was detected): oral gavage of marein 200 mg/kg, plasma 0-1 h, urine 24 h
Protocol: as §1
After adaptive feeding for 1 week, 24 SD rats were randomly divided into 4 groups: blank blood sample group, blank urine group, marein blood sample group, and marein urine group. The experimental animals were fasted 12 hours before the administration and free drinking water. Marein was dissolved with an appropriate amount of CMC-Na solution and was administered to SD rats by gavage at a dose of 200 mg/kg. The blank blood sample group was given an equal volume of CMC-Na solution.
as §2, §3, §4, §5
Used UPLC-Q-TOF-MS/MS 9030 system (Shimadzu, Japan), chromatography column: Shim-pack GISS C18 column (100 × 2.1 mm, 1.9 μm). […]
as §8

[3] = design: method as in PMID 27387397; conditions: healthy volunteers, tea of C. tinctoria; cited from earlier work
[4] = Metabolic stability of marein in rat liver microsome incubation; assay type: in vitro ADME; conditions: for Area% (remaining percentage): 37°C, NADPH
Protocol: The total volume of the incubation system is 500 μL, including phosphate buffer (0.1 M, pH 7.4) 470 μL, and NADPH generating system 30 μL (Solution A: 25 μL and Solution B: 5 μL). The process is completed on an ice bath.
Marein blank control group: Take the above incubation system, add 5 μL of aqueous solution to an ice bath, incubate at 37°C for 5 min, and then add 15 μL of liver microsomes to the ice bath. After gently mixing the incubation system by hand, start the incubation at 37°C in a water bath. The incubation time is 0, 5, 15, 30, 45, 60, 90, and 120 min, and each sample is paralleled 3 times. When the reaction is complete, stop the reaction with the same volume of ice acetonitrile to completely precipitate the protein, centrifuge at 4,200 g for 10 min, aspirate the supernatant and centrifuge at 19,500 g for 10 min, and inject 2 μL for analysis.
Marein inactivated liver microsomes group: First inactivate liver microsomes, take the incubation system, add 5 μL of the marein reference substance stock solution on an ice bath, incubate at 37°C for 5 min, and then add 15 μL of inactivation to the ice bath. The following procedures were similar to the blank control group.
Marein liver microsomes group: Take the incubation system, add 5 μL of the marein reference substance stock solution to an ice bath, incubate at 37°C for 5 min, and then add 15 μL of liver microsomes to the ice bath. The following operation was the same as the blank control group.
as §6, §7
In the study of metabolism in vivo, the injection volume was 5 μL, while that in vitro metabolism was 2 μL.
In the liver microsomes study, the 0 min peak area of marein was regarded as 100%, and other time points were compared with the 0 min peak area to obtain the remaining percentage (area%). According to the natural logarithm of area% and incubation, the time slope k was obtained by linear regression. According to formula (1), the half-life t1/2/min of marein in liver microsomes could be obtained. According to formulas (2)–(5), the half-lives in liver microsomes, intrinsic clearance rate CLint, in vivo intrinsic clearance rate CL′int, liver clearance rate CLH, and liver extraction rate ER were calculated.(1) t1/2=−0.693/k, (2) CLint=0.693/t1/2incubationmL/microsomesmg, (3) CLint′=0.693/t1/2·incubationmL/microsomesmg·Liverg/BWkg·microsmesmg/Liverg, (4) CLH=Q·CLint′/Q+CLint′, (5) ER=CLH/Q.
The physical and chemical parameters: The liver tissue per kilogram of body weight for rat (Liver (g)/BW (kg)) was 40 g. Q is hepatic blood flow (66 ml/min/kg for rat), and CL′int is the intrinsic clearance. The microsomal protein per gram of liver tissue (microsomes (mg)/liver (g)) was 45 mg.

Compound: O=C(/C=C/c1cccc(O)c1)c1ccc(O[C@@H]2O[C@H](CO)[C@@H](O)[C@H](O)[C@H]2O)c(O)c1O [M′11]
- Location (matrix in which the metabolite was detected) [1]: U

Compound: O=C1C[C@@H](c2ccc(O)c(O)c2)Oc2c1ccc(O[C@@H]1O[C@H](CO)[C@@H](O)[C@H](O)[C@H]1O)c2O [M′1, flavanomarein]
- prototype components after tail vein injection [1]: detected
- Location (matrix in which the metabolite was detected) [1]: P, U

Compound: O=C(/C=C/c1ccc(O)c(O)c1)c1ccc(O[C@@H]2O[C@H](CO)[C@@H](O)[C@H](O)[C@H]2O)c(O)c1O [marein]
- marein in blood after drinking C. tinctoria tea [3]: no marein is detected
- prototype in plasma and urine after gavage ([2]; oral gavage 200 mg/kg, 200 mg/kg): no prototype components were found; also recorded: not detected in the original form
- marein in plasma after intragastric administration ([2]; preliminary experiments of the team): no marein was found in plasma
- prototype components after tail vein injection [1]: detected
- Location (matrix in which the metabolite was detected) [1]: P, U
- CLint (intrinsic clearance rate) ([4]; SD rat liver microsomes): 0.0065 mL·(min·mg protein)^−1
- t1/2 (in vitro metabolic half-life in liver microsomes) ([4]; SD rat liver microsomes): 2.961538 h
- ER (liver extraction rate) ([4]; SD rat, ER=CLH/Q): 0.15 and 0.1506
- CLH (liver clearance rate) ([4]; SD rat, Q 66 ml/min/kg): 9.9382 mL·min/kg
- CL′int (in vivo intrinsic clearance rate) ([4]; SD rat, scaled with 40 g liver/kg, 45 mg microsomal protein/g liver): 11.7000 mL·min/kg
- half-life ([4]; SD, rat, liver microsomes, pH 7.4, SD rat liver microsomes, read-out: t1/2 (in vitro metabolic half-life in liver microsomes)): 2.96 h
- Ln (area%) ([4]; incubation 0 min): 4.61
- Area% (remaining percentage) ([4]; incubation 0 min, 0 min regarded as 100%): 100%
- Ln (area%) ([4]; incubation 5 min): 4.59
- Area% (remaining percentage) ([4]; incubation 5 min): 98.69%
- Ln (area%) ([4]; incubation 15 min): 4.46
- Area% (remaining percentage) ([4]; incubation 15 min): 86.70%
- Ln (area%) ([4]; incubation 30 min): 4.41
- Area% (remaining percentage) ([4]; incubation 30 min): 82.34%
- Ln (area%) ([4]; incubation 45 min): 4.36
- Area% (remaining percentage) ([4]; incubation 45 min): 77.93%
- Ln (area%) ([4]; incubation 60 min): 4.22
- Area% (remaining percentage) ([4]; incubation 60 min): 68.01%
- Ln (area%) ([4]; incubation 90 min): 4.21
- Area% (remaining percentage) ([4]; incubation 90 min): 67.21%
- Ln (area%) ([4]; incubation 120 min): 4.14
- Area% (remaining percentage) ([4]; incubation 120 min): 62.76%
- metabolic stability in liver microsomes ([4]; rat liver microsomes): good

Compound: O=C(CCc1ccccc1)c1ccc(O[C@@H]2O[C@H](CO)[C@@H](O)[C@H](O)[C@H]2O)c(O)c1O [M′17]
- Location (matrix in which the metabolite was detected) [1]: U

Compound: O=C(/C=C/c1ccc(O)c(O)c1)c1ccc(O[C@@H]2O[C@H](CO)[C@@H](O)[C@H](O)[C@H]2O)cc1O [M′13]
- Location (matrix in which the metabolite was detected) [1]: P, U

Compound: O=C(/C=C/c1ccc(O)cc1)c1ccc(O[C@@H]2O[C@H](CO)[C@@H](O)[C@H](O)[C@H]2O)c(O)c1O [M′12]
- Location (matrix in which the metabolite was detected) [1]: U

The next lines start with the values.

- Location (matrix in which the metabolite was detected) [2]: P
- Location (matrix in which the metabolite was detected) [1]: U
Compound: O=C(/C=C/c1ccc(O)c(O)c1)c1ccc(O)c(O)c1O [M24, okanin]

- Location (matrix in which the metabolite was detected) [2]: P
- Location (matrix in which the metabolite was detected) ([1]; listed as M′10): P, U
Compound: O=c1cc(-c2ccc(O)c(O)c2)oc2c(O)c(O[C@@H]3O[C@H](CO)[C@@H](O)[C@H](O)[C@H]3O)ccc12 [M13]
